Among the test systems are HT29 colon; CCRF-CEM leukemia; TK-10 renal; A549 NSCLC; NCI-H23 lung; SF-539 CNS; MCF7 breast; MDA-MB-231 breast; SF-268 CNS; CAKI-1 renal.
Holding throughout (assay): DTP human tumour cell line panel, 48 h

Molecules are shown by their SMILES. Values joined by “and” are separate entries in the source; they are usually repeats but may differ in a detail not shown here. Identical values can stand only once.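 Briefly, cells in 96-well plates were exposed to five compound concentrations for 48 h, and endpoints were estimated by linear interpolation. The concentration for 50% growth inhibition is given as GI50. At the TGI there is no net growth.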

With `COc1ccc(/C=C/C(=O)c2c(O)ccc3c(C)c(C(=O)O)oc23)cc1`, the GI50 is greater than 100 µM in the experiment on HT29 colon; 40.3 µM in the experiment on CCRF-CEM leukemia; greater than 100 µM in the experiment with TK-10 renal; 91.9 µM in the experiment with A549 NSCLC; 74.2 µM in the experiment on NCI-H23 lung; 35.6 µM with SF-539 CNS. The GI50 in the experiment on MCF7 breast is 28.1 µM; in the experiment with MDA-MB-231 breast, 44.7 µM; in the experiment on SF-268 CNS it was 42.3 µM; in the experiment on CAKI-1 renal, 63.2 µM. The TGI with HT29 colon, in the experiment with CCRF-CEM leukemia, in the experiment with TK-10 renal, with A549 NSCLC, with NCI-H23 lung and with SF-539 CNS was greater than 100 µM throughout. For the same compound, the total growth inhibition concentration (TGI) with MCF7 breast, with MDA-MB-231 breast, in the experiment on SF-268 CNS and in the experiment with CAKI-1 renal was greater than 100 µM throughout.

In the case of `CCN1CCC(CC(=O)Nc2n[nH]c3nnc(-c4cccc(F)c4F)cc23)CC1`, the GI50 is 12.4 µM with HT29 colon; greater than 25 µM in the experiment with CCRF-CEM leukemia; greater than 25 µM in the experiment on TK-10 renal; greater than 25 µM with A549 NSCLC; greater than 25 µM with NCI-H23 lung; greater than 18.9 µM in the experiment on SF-539 CNS. Besides, the GI50 in the experiment with MCF7 breast was 4.11 µM; with MDA-MB-231 breast it was greater than 25 µM; in the experiment on SF-268 CNS, greater than 25 µM; in the experiment with CAKI-1 renal it was greater than 25 µM. For the same compound, the concentration for total growth inhibition (TGI) in the experiment on HT29 colon, in the experiment with CCRF-CEM leukemia, with TK-10 renal, in the experiment on A549 NSCLC, in the experiment on NCI-H23 lung and in the experiment with SF-539 CNS was greater than 25 µM in each case. For the same compound, the total growth inhibition concentration (TGI) in the experiment with MCF7 breast, with MDA-MB-231 breast, in the experiment with SF-268 CNS and in the experiment with CAKI-1 renal was greater than 25 µM throughout.

As for `C/C(CCC(=O)O)=N/Nc1ccc([N+](=O)[O-])cc1`, the GI50 in the experiment on HT29 colon was greater than 100 µM; with CCRF-CEM leukemia, 0.696 µM; in the experiment on TK-10 renal, greater than 100 µM; in the experiment on A549 NSCLC, 4.41 µM; with NCI-H23 lung, greater than 100 µM; in the experiment with SF-539 CNS, 3.18 µM. Besides, the GI50 in the experiment with MCF7 breast is 24.4 µM; in the experiment on MDA-MB-231 breast, 7.16 µM; in the experiment with SF-268 CNS, 29 µM; in the experiment on CAKI-1 renal it was 3.69 µM. In addition, the TGI is greater than 100 µM in the experiment on HT29 colon; greater than 100 µM in the experiment on CCRF-CEM leukemia; greater than 100 µM in the experiment with TK-10 renal; greater than 100 µM in the experiment with A549 NSCLC; greater than 100 µM with NCI-H23 lung; 14.8 µM in the experiment on SF-539 CNS. The TGI in the experiment on MCF7 breast, with MDA-MB-231 breast, in the experiment with SF-268 CNS and in the experiment on CAKI-1 renal was greater than 100 µM throughout.

For `Cc1ccccc1C1=C(c2cn(C)c3ccccc23)C(=O)NC1=O`, the GI50 in the experiment on HT29 colon was 12.1 µM; with CCRF-CEM leukemia, 9.75 µM; in the experiment with TK-10 renal it was greater than 25 µM; with A549 NSCLC, 12.2 µM; in the experiment with NCI-H23 lung it was greater than 25 µM; in the experiment on SF-539 CNS, 13.7 µM. In addition, the GI50 with MCF7 breast was 9.2 µM; in the experiment on MDA-MB-231 breast it was 21.5 µM; with SF-268 CNS, greater than 25 µM; in the experiment with CAKI-1 renal, 10.2 µM. Besides, the TGI in the experiment with HT29 colon, with CCRF-CEM leukemia, with TK-10 renal, with A549 NSCLC, in the experiment on NCI-H23 lung and in the experiment with SF-539 CNS was greater than 25 µM each time. Moreover, the TGI in the experiment on MCF7 breast, with MDA-MB-231 breast, in the experiment with SF-268 CNS and in the experiment with CAKI-1 renal was greater than 25 µM throughout.

As to `C/C(=N\NC(=S)N1CCN(c2ccccn2)CC1)c1ccccn1`, the GI50 in the experiment with HT29 colon is less than 0.0192 µM; with A549 NSCLC it was 0.0464 µM; with SF-539 CNS, 0.0272 µM; with CAKI-1 renal, 0.301 µM. Also, the TGI was 16 µM in the experiment on HT29 colon; 0.878 µM and 0.317 µM in the experiment on CCRF-CEM leukemia; 13.9 µM with TK-10 renal; 13.7 µM in the experiment on A549 NSCLC; 11.5 µM with NCI-H23 lung; 8.02 µM in the experiment on SF-539 CNS. For the same compound, the concentration for total growth inhibition (TGI) with MCF7 breast came out at 11.4 µM; in the experiment on MDA-MB-231 breast it was 18.5 µM; with SF-268 CNS, 14.2 µM; in the experiment on CAKI-1 renal, 15.5 µM.

As to `O=C(c1ccccc1)C(Cl)C(Cl)c1ccccc1` (centres undefined), the GI50 is 2.05 µM with HT29 colon; 1.67 µM with CCRF-CEM leukemia; 3.14 µM in the experiment with TK-10 renal; 18.3 µM in the experiment with A549 NSCLC; 3.27 µM with NCI-H23 lung; 3.01 µM in the experiment on SF-539 CNS. For the same compound, the GI50 was 1 µM in the experiment with MCF7 breast, 3.16 µM in the experiment with MDA-MB-231 breast, 4.71 µM with SF-268 CNS and 2.53 µM in the experiment with CAKI-1 renal. Moreover, the TGI with HT29 colon worked out at 4.12 µM; in the experiment with CCRF-CEM leukemia, 6.93 µM; in the experiment with TK-10 renal, 9.12 µM; in the experiment with A549 NSCLC, 34.2 µM; in the experiment with NCI-H23 lung it was 12.8 µM; in the experiment on SF-539 CNS it was 10.2 µM. Further, the concentration for total growth inhibition (TGI) in the experiment with MCF7 breast was 10.3 µM; with MDA-MB-231 breast it was 8.97 µM; in the experiment with SF-268 CNS it was 17.3 µM; in the experiment with CAKI-1 renal, 8.18 µM.

`CNS(=O)(=O)OCC1OC(n2cnc3cncnc32)C(O)C1O` (centres undefined): the GI50 in the experiment on HT29 colon, in the experiment on CCRF-CEM leukemia, with TK-10 renal, with A549 NSCLC, in the experiment on NCI-H23 lung and in the experiment with SF-539 CNS was greater than 100 µM in each case. Moreover, the GI50 in the experiment on MCF7 breast, in the experiment with MDA-MB-231 breast, with SF-268 CNS and in the experiment on CAKI-1 renal was greater than 100 µM in each case. Besides, the TGI in the experiment with HT29 colon, with CCRF-CEM leukemia, with TK-10 renal, with A549 NSCLC, in the experiment on NCI-H23 lung and with SF-539 CNS was greater than 100 µM in each case. Further, the total growth inhibition concentration (TGI) in the experiment with MCF7 breast, with MDA-MB-231 breast, in the experiment with SF-268 CNS and with CAKI-1 renal was greater than 100 µM each time.

For the origin of these results see PubChem BioAssay (NCI).
